Measurements from USRE31731E, “Herbicidal 4-trifluoromethyl-4-nitrodiphenyl ethers” (priority 1978, dated 1984).

How the values were obtained:
Assay type in all cases: in vivo
Dicots [1] = assay: Herbicidal activity, preemergence, dicot weeds (Table II); details: pre-emergence, 336 h, about 2 weeks, read-out: % control (percent of plants killed); for pest or weed control at 2241.7 g/ha: 2 lb./A.; for pest or weed control at 4483.4 g/ha: 4 lb./A.
Procedure: (§1) Using the procedure described below, diphenyl ethers were evaluated for control of the following weeds: […]
(§2) bindweed (Convolvulus arvensis) curly dock (Remex crispus) velvetleaf (Abutilon theophrasti) wild mustard (Brassica haber)
(§3) At 2 and 4 pounds per acre: […]
(§4) cocklebur (Xanthium pensylvanicum)
(§5) **coffeeweed (Sesbania macrocarpa)
(§6) *curly dock (Rumex crispus)
(§7) *lambsquarters (Chenopodium album) morningglory (Ipomoea purpurea)
(§8) *pigweed (Amaranthus retroflexus)
(§9) **ragweed (Ambrosia artemisiifolia)
(§10) *smartweed (Polygonum pensylvanicum)
(§11) **tomato (Lycopersicon esculentum)
(§12) *wild carrot (Daucus carota)
(§13) *wild mustard (Brassica haber)
(§14) The following test procedure is employed. Seeds of selected crops and weeds are planted in soil in flats. For preemergence tests, the flats are treated with the test compound immediately after the planting. For postemergence tests, the seeds are allowed to germinate, and after 2 weeks the flats are treated with the test compound. The compound to be evaluated is dissolved in acetone, diluted with water, and sprayed over the flats using a carrier volume equivalent to 50 gallons per acre at the rate of application (pounds per acre, lb/A.) specified in the tables. About 2 weeks after the application of the test compound, the state of growth of the plants is observed and the phytotoxic effect of the compound is evaluated. Table II gives the average percent control achieved by the test compounds in terms of the percent of the plants which are killed by the compounds.

Dicots [2] = assay: Herbicidal activity, postemergence, dicot weeds (Table II); details: post-emergence, 336 h, about 2 weeks, read-out: % control (percent of plants killed); for pest or weed control at 2241.7 g/ha: 2 lb./A.; for pest or weed control at 4483.4 g/ha: 4 lb./A.
Procedure: as §1, §2, §3, §4, §5, §6, §7, §8, §9, §10, §11, §12, §13, §14

rice = assay: Crop tolerance, rice; details: postemergence or on transplanted rice; 50% or less kill of crop at rates giving more than 50% kill of weeds
Procedure: as §14
(§15) Following the general test procedure of Example 73, diphenyl ethers are evaluated for significant tolerance (as shown by 50% or less kill of the test crop at levels of application which give more than 50% kill of many or all of the weeds of Example 73) towards some or all of the following common agronomic crops (not all compounds tested against all crops): alfalfa, snapbeans, corn, cotton, cucumbers, peanuts, rape, rice, safflower, soybeans, tomatoes, and wheat.

Monocots [3] = assay: Herbicidal activity, preemergence, monocot weeds (Table II); details: pre-emergence, 336 h, about 2 weeks, read-out: % control (percent of plants killed); for pest or weed control at 2241.7 g/ha: 2 lb./A.; for pest or weed control at 4483.4 g/ha: 4 lb./A.
Procedure: as §1
(§16) barnyardgrass (Echinochloa crusgalli) crabgrass (Digitaria spp.) nutsedge (Cyperus esculentus)
(§17) At 2 and 4 pounds per acre:
(§18) **Bermudagrass (Cynodon dactylon)
(§19) *downy brome (Bromus tectorum) foxtail (Setaria faberii)
(§20) Johnsongrass (Sorghum halepense) […]
(§21) quackgrass (Agropyron repens)
(§22) *ryegrass (Lolium perenne)
(§23) *yellow millet (Panicum miliaceum)
as §14

Monocots [4] = assay: Herbicidal activity, postemergence, monocot weeds (Table II); details: post-emergence, 336 h, about 2 weeks, read-out: % control (percent of plants killed); for pest or weed control at 2241.7 g/ha: 2 lb./A.; for pest or weed control at 4483.4 g/ha: 4 lb./A.
Procedure: as §1, §16, §17, §18, §19, §20, §21, §22, §23, §14

peanuts = assay: Crop tolerance, peanuts; details: postemergence; 50% or less kill of crop at rates giving more than 50% kill of weeds
Procedure: as §14, §15

| Structure (SMILES) | pest or weed control at 2241.7 g/ha (Dicots [1]) | pest or weed control at 4483.4 g/ha (Dicots [1]) | pest or weed control at 2241.7 g/ha (Dicots [2]) | pest or weed control at 4483.4 g/ha (Dicots [2]) | Tolerance to rice (rice) | pest or weed control at 2241.7 g/ha (Monocots [3]) | pest or weed control at 4483.4 g/ha (Monocots [3]) | pest or weed control at 2241.7 g/ha (Monocots [4]) | pest or weed control at 4483.4 g/ha (Monocots [4]) | Tolerance to peanuts (peanuts) |
| --- | --- | --- | --- | --- | --- | --- | --- | --- | --- | --- |
| CN(C)c1cc(Oc2ccc(C(F)(F)F)cc2Cl)ccc1[N+](=O)[O-] [Example 20, 2-chloro-α,α,α-trifluoro-p-tolyl-3-dimethylamino-4-nitrophenyl ether] | 93% | 99% | 97% | 88% | Tolerance | 80% | 88% | 80% | 78% | – |
| O=[N+]([O-])c1ccc(Oc2ccc(C(F)(F)F)cc2Cl)cc1N1CCOCC1 [Example 28, 2-chloro-α,α,α-trifluoro-p-tolyl-3-morpholino-4-nitrophenyl ether] | 79% | 95% | 100% | 99% | – | 79% | 74% | 73% | 73% | – |
| C#CCCOc1cc(Oc2ccc(C(F)(F)F)cc2Cl)ccc1[N+](=O)[O-] [Example 29] | 84% | 73% | 100% | 100% | – | 66% | 74% | 97% | 79% | – |
| CC(=O)CCOc1cc(Oc2ccc(C(F)(F)F)cc2Cl)ccc1[N+](=O)[O-] [Example 31] | 69% | 99% | 100% | 100% | – | 68% | 74% | 68% | 61% | – |
| CC(=O)C(C)Oc1cc(Oc2ccc(C(F)(F)F)cc2Cl)ccc1[N+](=O)[O-] (centres unmarked) [Example 32] | 81% | 100% | 100% | 100% | – | 81% | 86% | 100% | 86% | – |
| CNC(=O)Oc1cc(Oc2ccc(C(F)(F)F)cc2Cl)ccc1[N+](=O)[O-] [Example 33] | 74% | 99% | 100% | 98% | – | 79% | 53% | 65% | 32% | – |
| O=C(CCl)Nc1cc(Oc2ccc(C(F)(F)F)cc2Cl)ccc1[N+](=O)[O-] [Example 35, 2-chloro-α,α,α-trifluoro-p-tolyl-3-chloroacetamido-4-nitrophenyl ether] | 72% | 40% | 80% | 98% | – | 60% | 40% | 63% | 45% | – |
| O=[N+]([O-])c1ccc(Oc2ccc(C(F)(F)F)cc2Cl)cc1Cl [Example 37, 2-chloro-α,α,α-trifluoro-p-tolyl-3-chloro-4-nitrophenyl ether] | 100% | 100% | 100% | 100% | – | 100% | 99% | 100% | 92% | Tolerance |
| O=[N+]([O-])c1ccc(Oc2ccc(C(F)(F)F)cc2Cl)cc1OCC1CO1 (centres unmarked) [Example 38] | 68% | 86% | 58% | 98% | – | 62% | 47% | 51% | 43% | – |
| O=[N+]([O-])c1ccc(Oc2ccc(C(F)(F)F)cc2Cl)cc1OCC(O)CO (stereo not drawn) [Example 39, 2-chloro-α,α,α-trifluoro-p-tolyl-3-(2,3-dihydroxypropoxy)-4-nitrophenyl ether] | 80% | 99% | 100% | 98% | – | 77% | 65% | 61% | 64% | – |
| CCCN(CCC)c1cc(Oc2ccc(C(F)(F)F)cc2Cl)ccc1[N+](=O)[O-] [Example 41] | 62% | 96% | 94% | 95% | – | 84% | 60% | 56% | 71% | – |
| CS(=O)(=O)CCOc1cc(Oc2ccc(C(F)(F)F)cc2Cl)ccc1[N+](=O)[O-] [Example 42] | 60% | 80% | 88% | 98% | – | 83% | 62% | 63% | 38% | – |
| CN(CCO)c1cc(Oc2ccc(C(F)(F)F)cc2Cl)ccc1[N+](=O)[O-] [Example 43] | 100% | 48% | 80% | 47% | – | 99% | 0% | 61% | 2% | – |
| CNC(=O)Nc1cc(Oc2ccc(C(F)(F)F)cc2Cl)ccc1[N+](=O)[O-] [Example 44] | 17% | 96% | 10% | 98% | – | 0% | 66% | 7% | 60% | – |
| CCSC(=O)Nc1cc(Oc2ccc(C(F)(F)F)cc2Cl)ccc1[N+](=O)[O-] [Example 45] | 77% | 58% | 78% | 88% | – | 68% | 13% | 53% | 17% | – |
| CCSC(=O)N(C(=O)SCC)c1cc(Oc2ccc(C(F)(F)F)cc2Cl)ccc1[N+](=O)[O-] [Example 46] | 87% | 20% | 4% | 30% | – | 34% | 0% | 0% | 0% | – |
| N#Cc1cc(Oc2ccc(C(F)(F)F)cc2Cl)ccc1[N+](=O)[O-] [Example 47, 2-Chloro-α,α,α-trifluoro-p-tolyl-3-cyano-4-nitrophenyl ether] | 80% | 40% | 84% | 72% | – | 80% | 61% | 24% | 11% | – |
| CC(Oc1cc(Oc2ccc(C(F)(F)F)cc2Cl)ccc1[N+](=O)[O-])C(N)=O (stereo not drawn) [Example 51, 2-chloro-α,α,α-trifluoro-p-tolyl-3-(1-carbamoylethoxy)-4-nitrophenyl ether] | 100% | 100% | 98% | 100% | – | 96% | 79% | 86% | 75% | – |
| CCN(C(=O)NC)c1cc(Oc2ccc(C(F)(F)F)cc2Cl)ccc1[N+](=O)[O-] [Example 55, 2-Chloro-α,α,α-trifluoro-p-tolyl-3-(3-methyl-1-ethylureido)-4-nitrophenyl ether] | – | 73% | 96% | 95% | – | – | 91% | 31% | 69% | – |
